Measurements published in patent US20080275134A1, “Methods for Treatment of Retinal Degenerative Disease” (University of Washington, priority 2005, published 2008).

Key:
[1] = test system: regeneration of vision chromophore (11-cis-retinal); assay: regeneration of 11-cis-retinal in mouse eyes after gavage and light bleach, HPLC retinoid analysis; type: in vivo
Procedure: Mice were gavaged with all-trains-Ret-NH2, exposed to intense light for 20 min, and then allowed to recover in the dark for 5 hours. The total amount of different forms of retinoids in all experiments was unchanged. […] For this experiment mice were treated with both 9-cis-retinol and all-trans-Ret-NH2, and bleached after 24 hours, and were allowed to recover for 5 hours in the dark. The presence of 9-cis-retinal was confirmed in treated animals (see peaks 4 and 4′ in FIG. 4A bottom panel, corresponding to syn- and anti-9-cis-retinal oximes, respectively). 11-cis-Retinal was not reduced and/or esterified after treatment with Ret-NH2. […] This supports the idea that Ret-NH2 is a specific inhibitor of the isomerization reaction.
A. Chromatographic separation of nonpolar retinoids from WT mouse eyes. Mice were gavaged with all-trans-Ret-NH2 24 hours prior to bleaching for 20 min at 150 cd·m^−2 W in the Ganzfeld chamber. Regeneration of 11-cis-retinal was allowed for 24 hours in the dark, and retinoids were extracted from the eye and separated by normal phase HPLC as described in Materials and Methods. The peaks were identified based on elution time and absorption spectra correspond to the following retinoids: 1, all-trans-retinyl esters; 2,2′, syn- and anti-11-cis-retinal oximes; 3, syn-all-trans-retinal oxime; 4,4′, syn- and anti-9-cis-retinal oximes; 5, all-trans-retinol. B. Changes of 11-cis-retinal oxime levels at increasing doses of all-trans-Ret-NH2 during 5 hours or 24 hours of dark adaptation. Square indicates the level of 11-cis-retinal oximes that was present in mice gavaged with vegetable oil without retinoids just after bleaching, and arrow indicates the increase of visual chromophore during 5 hours of dark adaptation. Triangles correspond to the level of 11-cis-retinal found in the mice gavaged with 50 mg/kg of 13-cis-RA. C and D. Single flash ERG responses of increasing intensity for all-trans-Ret-NH2 treated mice and control mice. Serial responses to increasing flash stimuli were obtained for all-trans-Ret-NH2 treated and control mice for selected intensities (C) and plotted as a function of a-wave and b-wave versus varying light intensities under dark-adapted conditions (D) before bleach and at 5 hours and 24 hours after bleach. The dark-adapted mice were bleached with intense constant illumination (150 cd·m^−2) for 20 min. […] SE bars are shown.
Chromatographic separation of nonpolar retinoids from WT mouse eyes. Mice were gavaged with 100 mg/kg of all-trans-Ret-NH2 24 hours prior to bleaching. Mice were next exposed to 500 cd m^−2 for 48 min bleaching in the Ganzfeld chamber. Regeneration of 11-cis-retinal was allowed for 24 hours in the dark, and retinoids were extracted from the eye and separated by normal phase HPLC as described in Materials and Methods. The peaks identified based on elution time and absorption spectra correspond to the following retinoids: 1, all-trans-retinyl esters; 2,2′, syn- and anti-1-cis-retinal oximes; 3,3′ syn- and anti-all-trans-retinal oximes; 4, all-trans-retinol.
Mice were gavaged with the solution of inhibitor in vegetable oil (control—non-treated, RPN—retinylpalmitamide, RAN—retinylacetamide, Ret—NH2-all-trans-retinylamine), kept in dark for 16 hours, then light stimulated and kept in dark for additional 5 hours before their eyes were analyzed.
Mouse retinoid extraction and analysis—Retinoid analysis was performed under dim red light as described previously (Maeda et al., J. Neurochem 85:944-956, 2003; Van Hooser et al., J Biol Chem 277:19173-82, 2002). Mice were gavaged with retinoids as described previously (Van Hooser et al., J Biol Chem 277:19173-82, 2002).

[2] = target: T1, isomerase (Bos taurus, UniProt Q28175); assay: isomerase reaction: 11-cis-retinol production by RPE microsomes from all-trans-retinol; type: biochemical, bovine
T1 construct: Purified RPE microsomes were the source of the enzymes; from tissue; host or cells: bovine retinal pigment epithelium microsomes
T1 sequence (Q28175 2-533 limits assumed): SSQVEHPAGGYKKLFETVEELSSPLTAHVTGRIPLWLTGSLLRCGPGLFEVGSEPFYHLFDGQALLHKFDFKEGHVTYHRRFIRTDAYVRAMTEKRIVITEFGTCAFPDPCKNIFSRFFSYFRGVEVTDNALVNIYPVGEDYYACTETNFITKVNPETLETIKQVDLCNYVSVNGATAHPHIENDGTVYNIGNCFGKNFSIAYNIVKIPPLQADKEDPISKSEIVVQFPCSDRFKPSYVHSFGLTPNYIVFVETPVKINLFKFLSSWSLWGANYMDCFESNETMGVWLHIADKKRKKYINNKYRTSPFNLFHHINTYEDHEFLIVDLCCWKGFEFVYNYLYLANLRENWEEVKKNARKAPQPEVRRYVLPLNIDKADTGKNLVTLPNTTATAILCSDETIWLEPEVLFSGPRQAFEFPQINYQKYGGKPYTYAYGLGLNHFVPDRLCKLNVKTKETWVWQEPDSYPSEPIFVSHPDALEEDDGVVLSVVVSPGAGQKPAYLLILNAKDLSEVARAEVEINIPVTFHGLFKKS
Procedure: To test if 11-cis-retinylamine (11-cis Ret-NH2) affects isomerization and esterification, an in vitro assay was employed. In this assay both of the all-trans-retinyl esters formed in the reaction catalyzed by LRAT and 11-cis-retinol production by isomerase were measured (6). Purified RPE microsomes were the source of the enzymes, and all-trans-retinol was the substrate. […] Inhibition of isomerization by Ret-NH2 is not due to binding of CRALBP or competition with 11-cis-retinol for binding to CRALBP. […] An increased concentration of all-trans-retinol lowered the level of inhibition, as illustrated in FIG. 2B. […] Dixon's and Lineweaver-Burk plots in the standard assay conditions yielded Ki=0.1 μM for Ret-NH2 when all-trans-retinol (KM=0.3 μM) was assumed to be a substrate. […] This estimated value reflects the very potent nature of the inhibition by 11-cis-Ret-NH2.
Materials—Fresh bovine eyes were obtained from a local slaughterhouse (Schenk Packing Co., Inc., Stanwood, Wash.). Preparation of bovine RPE microsomes was performed according to previously described methods (Stecher et al., J Biol Chem 274:8577-85, 1999). All chemicals were purchased from Sigma-Aldrich (St. Louis, Mo.). 11-cis-Retinal was obtained from Dr. Rosalie Crouch (Charleston, S.C.).
Reaction conditions for isomerase and LRAT reaction—The isomerase reaction was performed essentially as described previously (Stecher et al., J Biol Chem 274:8577-85, 1999). The reaction was carried out in 10 mM BTP buffer, pH 7.5, 1% BSA, containing 1 mM ATP and 6 μM apo-CRALBP. To investigate inhibition properties of Ret-NH2 and its derivatives, RPE microsomes were preincubated for 5 min in 37° C. with the indicated compound in 10 mM BTP buffer, pH 7.5, 1% BSA, 1 mM ATP prior to addition of apo-CRALBP and all-trans-retinol. Ret-NH2 and its derivatives were delivered to the reaction mixture in 1 μl of DMF, and the same volume of DMF was added to the control reaction. Each experiment was performed three times in duplicate. The average values were used and the standard deviations were calculated.

Row | SMILES | retinoid levels in the eye without light exposure ([1]; 50 mg/kg, not exposed to light, after 30 hours) | 11-cis-retinal in the eye after bleach and dark recovery ([1]; gavage, intense light 20 min, 5 hours in the dark) | levels of all-trans-retinyl esters in the eye ([1]; gavage, intense light 20 min, 5 hours in the dark, vs controls) | uptake, transport or oxidation of 9-cis-retinol ([1]; mice given 9-cis-retinol and all-trans-Ret-NH2, bleached after 24 hours, 5 hours dark) | IC50 ([2]; RPE microsomes, all-trans-retinol substrate, read-out: IC50, inhibition of 11-cis-retinol production) | IC50 of chromophore recovery, 5 hours recovery ([1]; 20 min high-intensity light, 5 hours dark) | IC50 of chromophore recovery, 24 hours recovery ([1]; 20 min high-intensity light, 24 hours dark) | recovery of chromophore after all 11-cis-retinal is photoisomerized ([1]; longer light treatment (100 mg/kg, 500 cd m^-2 for 48 min, 24 hours dark)) | Ki ([2]; Dixon's and Lineweaver-Burk plots, standard assay conditions, all-trans-retinol assumed to be substrate, estimated value) | mode of isomerase inhibition ([2]; initial rate vs concentrations of all-trans-retinol and 11-cis-Ret-NH2) | change in amount of Ret-NH2 between start and end of the assay (HPLC) ([2]; time course of the in vitro isomerase assay)
1 | CC1=C(/C=C/C(C)=C/C=C/C(C)=C/CN)C(C)(C)CCC1 [all-trans-Ret-NH2, all-trans-retinylamine] | normal levels of retinoids | only a residual amount | elevated | did not affect | 500 nM | – | – | – | – | – | –
2 | CC1=C(/C=C/C(C)=C/C=C/C(C)=C/CN)C(C)(C)CCC1 [Ret-NH2, Retinylamine] | – | – | – | – | – | 2 mg/kg | 24 mg/kg | completely blocks recovery of chromophore | 100 nM | reversible and can be competed out by all-trans-retinol | ≤ 5%
